Earlier results on two compounds are cited in patent publication US20210401795A1, “Compressible Cannabinoid Pharmaceutical Composition” (Imbucanna, Inc., priority 2019, published 2021).

For data set [1] the following is noted: pure CBD, twice-daily dosages, pediatric patients; ranging from total seizure freedom to the stated reductions.
Experiment in data set [2]: not given
This is another data set of the same source.

Where only a bound is given, the exact number is not on record here.

As for `CCCCCc1cc(O)c2c(c1)OC(C)(C)[C@@H]1CCC(C)=C[C@@H]21` [Dronabinol, (−)-trans-Δ^9-tetrahydrocannabinol], the “duration of appetite stimulant effect” value (after administration) was no less than 24 h. Also, for the setting “after oral administration”, the “duration of action for psychoactive effects” value was 4 to 6 h, the onset of action was 0.5 to 1 h and the peak effect was 2 to 4 h.

Take `C=C(C)[C@@H]1CCC(C)=C[C@H]1c1c(O)cc(CCCCC)cc1O` [CBD, cannabidiol]: in data set [1], the seizure reduction is 25-80%. For the same compound, the solubility in water entry in data set [2] is reported as “poorly soluble in water”.
